29 compounds from patent publication US11261186B2, “Biaryl derivative as GPR120 agonist” (LG CHEM, LTD., priority 2014, dated 2022) can be followed below.

The experiment deals with T1, hGPR120 (Homo sapiens, UniProt Q5NUL3).
T1 construct: expressed in transfected cells; host or cells: CHO-K1
T1 sequence (Q5NUL3 1-361): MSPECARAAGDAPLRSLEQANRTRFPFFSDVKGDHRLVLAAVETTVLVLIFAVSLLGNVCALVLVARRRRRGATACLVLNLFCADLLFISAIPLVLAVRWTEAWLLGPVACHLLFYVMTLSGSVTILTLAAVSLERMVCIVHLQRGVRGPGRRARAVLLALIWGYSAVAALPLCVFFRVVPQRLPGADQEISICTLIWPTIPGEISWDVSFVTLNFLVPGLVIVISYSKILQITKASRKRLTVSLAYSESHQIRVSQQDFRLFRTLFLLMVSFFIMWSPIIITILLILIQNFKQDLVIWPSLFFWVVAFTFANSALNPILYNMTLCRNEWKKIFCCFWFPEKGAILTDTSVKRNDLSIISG
Description: Measurement of Activity of GPR120 Agonist (Cell-Based Assay), Calcium 5 dye fluorescence. As to conditions: CHO-K1 cells expressing Ga16 and hGPR120. The gist of the method:
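CHO-K1 cells co-expressing Gα16 and hGPR120, plated 18 h, loaded 1 h at 37°C with Calcium 5 dye. Serially diluted agonists added at 0.5% DMSO final; fluorescence read at Ex 485/Em 525 nm and expressed as relative % of DMSO-only signal.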

As for `O=C(O)CC1CCN(c2c(F)cc(-c3cccc(OCC4CC4)n3)cc2Cl)CC1` [Example 307, 2-[1-[2-chloro-4-[6-(cyclopropylmethoxy)-2-pyridyl]-6-fluoro-phenyl]-4-piperidyl]acetic acid], the EC50 (as a rule, the midpoint of the concentration-response curve) lay in the range of 200 to 2000 nM.
As to `O=C(O)CC1CCN(c2c(F)cc(-c3cccc(OCC4CC4)n3)cc2F)CC1` [Example 106, 2-[1-[4-[6-(cyclopropylmethoxy)-2-pyridyl]-2,6-difluoro-phenyl]-4-piperidyl]acetic acid], the EC50 is < 200 nM.
Under `CN(CCCC(=O)O)c1c(F)cc(-c2csc(OC3CCC3)n2)cc1F` [Example 486, 4-[4-[2-(cyclobutoxy)thiazol-4-yl]-2,6-difluoro-N-methyl-anilino]butanoic acid] stands < 200 nM; under `Cc1cc(OC2CCC2)nc(-c2cc(F)c(N3CCC(CC(=O)O)CC3)c(F)c2)c1` [Example 327, 2-[1-[4-[6-(cyclobutoxy)-4-methyl-2-pyridyl]-2,6-difluoro-phenyl]-4-piperidyl]acetic acid], 200 to 2000 nM.
As for `CC(CCCC(=O)O)c1c(F)cc(-c2ccccc2NC2CCCC2)cc1F` (racemic) [Example 47, 5-(2′-cyclopentylamino-3,5-difluoro-bisphenyl-4-yl)hexanoic acid], the EC50 was < 200 nM.
Under `O=C(O)CCCn1ccc2cc(-c3cccnc3SC3CCCC3)ccc21` [Example 200, 4-[5-(2-cyclopentylsulfanyl-pyridin-3-yl)-indol-1-yl]-butyric acid] stands 200 to 2000 nM; under `Oc1cc(COc2c(F)cc(-c3cccnc3OC3CCC3)cc2F)on1` [Example 76, 5-[[4-[2-(cyclobutoxy)-3-pyridyl]-2,6-difluoro-phenoxy]methyl]isoxazol-3-ol], < 200 nM.
Turning to `CN(CCCC(=O)O)c1c(F)cc(-c2cc(Cl)cc3c2OC(C)(C)C3)cc1F` [Example 255, 4-{[4-(5-chloro-2,2-dimethyl-2,3-dihydro-benzofuran-7-yl)-2,6-difluoro-phenyl]-methyl-amino}-butyric acid], the EC50 is < 200 nM.
`Cc1cc(OC2CCC2)nc(-c2cc(F)c(N3CCC(CC(=O)O)C3)c(F)c2)c1` (centres unmarked) [Example 577, {1-[4-(6-cyclobutoxy-4-methyl-pyridin-2-yl)-2,6-difluoro-phenyl]-pyrrolidin-3-yl}-acetic acid]: the EC50 was in the range of 200 to 2000 nM.
In the case of `O=C(O)CCCOc1c(F)cc(-c2cncc(OCC3CC3)n2)cc1F` [Example 434, 4-[4-(6-cyclopropylmethoxy-pyrazin-2-yl)-2,6-difluoro-phenoxy]-butyric acid], the EC50 was < 200 nM.
The result for `O=C(O)CC1CCN(c2c(F)cc(-c3cccc(OC4CCC4)n3)cc2Cl)CC1` [Example 319, 2-[1-[2-chloro-4-[6-(cyclobutoxy)-2-pyridyl]-6-fluoro-phenyl]-4-piperidyl]acetic acid] reads 200 to 2000 nM; that for `O=C(O)CCCOc1c(F)cc(-c2nccc(OCC3CC3)n2)cc1F` [Example 433, 4-[4-(4-cyclopropylmethoxy-pyrimidin-2-yl)-2,6-difluoro-phenoxy]-butyric acid], < 200 nM; that for `CCOCc1cccc(-c2cc(F)c(N3CCC(CC(=O)O)CC3)c(F)c2)c1` [Example 303, 2-[1-[4-[3-(ethoxymethyl)phenyl]-2,6-difluoro-phenyl]-4-piperidyl]acetic acid], 200 to 2000 nM.
The result for `CCCOc1cc(C)nc(-c2cc(F)c(N3CCC(CC(=O)O)C3)c(F)c2)n1` (centres unmarked) [Example 589, {1-[2,6-difluoro-4-(4-methyl-6-propoxy-pyrimidin-2-yl)-phenyl]-pyrrolidin-3-yl}-acetic acid] reads < 200 nM; that for `CCCOc1ccnc(-c2cc(F)c(N3CCC(CC(=O)O)CC3)c(F)c2)n1` [Example 347, 2-[1-[2,6-difluoro-4-(4-propoxypyrimidin-2-yl)phenyl]-4-piperidyl]acetic acid], < 200 nM.
`O=C(O)CC1CCN(c2c(F)cc(-c3cccc4c3OC3(CCCC3)O4)cc2F)CC1` [Example 453, 2-[1-(2,6-difluoro-4-spiro[1,3-benzodioxol-2,1′-cyclopentan]-4-yl-phenyl)-4-piperidyl]acetic acid]: the EC50 lay within 200 to 2000 nM.
`O=C(O)CCCOc1c(F)cc(-c2ccc(Cl)c(OC3CCC3)n2)cc1F` [Example 533, 4-[4-(5-chloro-6-cyclobutoxy-pyridin-2-yl)-2,6-difluoro-phenoxy]-butyric acid]: the EC50 lay within 200 to 2000 nM.
Under `Cc1cc(OC2CCC2)nc(-c2cc(F)c(N3CCC(CC(=O)O)CC3)c(F)c2)n1` [Example 323, 2-[1-[4-[4-(cyclobutoxy)-6-methyl-pyrimidin-2-yl]-2,6-difluoro-phenyl]-4-piperidyl]acetic acid] stands 200 to 2000 nM.
With `O=C(O)CCCOc1c(F)cc(-c2csc(COCC3CC3)c2)cc1F` [Example 566, 4-[4-(5-cyclopropylmethoxymethyl-thiophen-3-yl)-2,6-difluoro-phenoxy]-butanoic acid], the EC50 is < 200 nM.
The result for `O=C(O)CCCOc1c(F)cc(-c2cccc(OCC3CC3)c2)cc1F` [Example 20, 4-(3′-cyclopropylmethoxy-3,5-difluoro-biphenyl-4-yloxy)-butyric acid] reads < 200 nM.
For `CC(C)Sc1cccc(-c2ccc3cc(CCC(=O)O)ccc3c2)n1` [Example 140, 3-[6-(6-isopropylsulfanyl-pyridin-2-yl)-naphthalen-2-yl]-propanoic acid], the EC50 lay in the range of 200 to 2000 nM.
The result for `CCc1ccc(Oc2ccnc(-c3cc(F)c(N4CCC(CC(=O)O)CC4)c(F)c3)n2)cc1` [Example 606, 2-[1-[2,6-difluoro-4-[6-(4-ethylphenoxy)pyrimidin-2-yl]phenyl]-4-piperidyl]acetic acid] reads 200 to 2000 nM.
Consider `CC(C)Sc1ncccc1-c1ccc2c(c1)CCC(CCC(=O)O)S2` (centres unmarked) [Example 270, 3-[6-(2-isopropylsulfanyl-pyridin-3-yl)-thiochroman-2-yl]-propionic acid], for which the EC50 was < 200 nM.
For the compound `O=C(O)CC1CCN(c2c(F)cc(-c3nc(OC4CCC4)cc(C(F)(F)F)n3)cc2F)CC1` [Example 617, {1-[4-(4-cyclobutoxy-6-trifluoromethyl-pyrimidin-2-yl)-2,6-difluoro-phenyl]-piperidin-4-yl}-acetic acid], the EC50 is > 20000 nM.
Under `COc1ccc(-c2cc(F)c(N3CCC(CC(=O)O)CC3)c(F)c2)nc1OCC1CC1` [Example 462, 2-[1-[4-[6-(cyclopropylmethoxy)-5-methoxy-2-pyridyl]-2,6-difluoro-phenyl]-4-piperidyl]acetic acid] stands 200 to 2000 nM.
Under `CC(CCCC(=O)O)c1c(F)cc(-c2cncc(OC3CCC3)n2)cc1F` (centres unmarked) [Example 399, 5-[4-[6-(cyclobutoxy)pyrazin-2-yl]-2,6-difluoro-phenyl]hexanoic acid] stands < 200 nM; under `O=C(O)CCC1CCc2cc(-c3cccnc3SC3CCC3)ccc2S1` (centres unmarked) [Example 275, 3-[6-(2-cyclobutylsulfanyl-pyridin-3-yl)-thiochroman-2-yl]-propionic acid], < 200 nM.
Under `O=C(O)CCCOc1c(F)cc(-c2nccc(OC3CCC3)n2)cc1Cl` [Example 422, 4-[2-chloro-4-(4-cyclobutoxy-pyrimidin-2-yl)-6-fluoro-phenoxy]-butyric acid] stands < 200 nM.
As to `O=C(O)CCCCc1ccc(-c2cccnc2SC2CCC2)cc1` [Example 27, 5-[4-(2-cyclobutylsulfanyl-3-pyridyl)phenyl]pentanoic acid], the EC50 was < 200 nM.
